Measurements: patent US8183212B2, “Compound having GPR54 agonistic activity” (Kyoto University, priority 2006, dated 2012)
Square brackets hold non-standard residues; d marks the D form. Peptide text beside a SMILES is read from it. 2Nal = N[C@@H](Cc1ccc2ccccc2c1)C(=O)O; 4Amb = NCc1ccc(C(=O)O)cc1; 4Abz = Nc1ccc(C(=O)O)cc1

Molecular target: GPR54 (Homo sapiens, UniProt Q969F8)
Test: GPR54 agonist activity by Flipr assay (increase in intracellular Ca2+ measured as fluorescence intensity)
Type: cell-based
Details: for % activity: fluorescence intensity with 10^-8 M pentapeptide derivative relative to 10^-6 M metastin (45-54) as 100%; for Q (=EC50 (compound)/EC50 [metastin (45-54)]): specific activity value relative to metastin (45-54)
Experimental: A compound having GPR54 agonist activity (pentapeptide derivative) was prepared according to a conventional Fmoc solid phase synthesis process using Rink-amide resin (Fields G B, Noble R L., Int J Pept Protein Res. 1990; 35, 161-214.). The GPR54 agonist activity of the obtained pentapeptide derivative was evaluated according to Flipr assay method wherein an increase in the intracellular Ca^2+ ion concentration due to receptor stimulation is measured as the fluorescence intensity. […] Hereafter, the agonist activity was mainly compared based on the Q value.

Sequence of GPR54 (Q969F8 whole entry, species assumed): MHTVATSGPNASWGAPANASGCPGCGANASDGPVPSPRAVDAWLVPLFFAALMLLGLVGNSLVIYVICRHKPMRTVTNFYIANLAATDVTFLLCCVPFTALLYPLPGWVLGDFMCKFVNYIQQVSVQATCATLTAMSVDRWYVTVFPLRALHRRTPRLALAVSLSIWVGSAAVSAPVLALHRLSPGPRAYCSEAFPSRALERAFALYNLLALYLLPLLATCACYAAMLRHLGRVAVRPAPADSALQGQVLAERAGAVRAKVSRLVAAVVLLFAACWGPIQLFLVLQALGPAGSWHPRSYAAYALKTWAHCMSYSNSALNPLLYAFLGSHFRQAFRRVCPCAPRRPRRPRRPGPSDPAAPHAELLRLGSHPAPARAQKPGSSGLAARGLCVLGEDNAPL

How did the “% activity” value turn out when CC(C)C[C@H](NC(=O)CNC(=O)[C@H](Cc1ccccc1)NC(=O)c1c[nH]cn1)C(=O)N[C@@H](CCCNC(=N)N)C(=O)N[C@@H](Cc1c[nH]c2ccccc12)C(N)=O [Compound 26, 4-imidazolylcarbonyl-Phe-Gly-Leu-Arg-Trp-NH2] was run?
Its value is 88%.

What does the source list for CC(C)C[C@H](NC(=O)CNC(=O)[C@H](Cc1ccccc1)NC(=O)c1ccc(CN)cc1)C(=O)N[C@@H](CCCNC(=N)N)C(=O)N[C@@H](Cc1c[nH]c2ccccc12)C(N)=O [Compound 6, 4-(aminomethyl)benzoyl-Phe-Gly-Leu-Arg-Trp-NH2] (H-[4Amb]FGLRW-NH2)?
% activity: 97%; Q (=EC50 (compound)/EC50 [metastin (45-54)]): 3.4

How did the EC50 turn out when CC(C)C[C@H](NC(=O)CNC(=O)[C@H](Cc1ccccc1)NC(=O)[C@H](CO)NC(=O)[C@H](CC(N)=O)NC(=O)[C@H](Cc1c[nH]c2ccccc12)NC(=O)[C@H](CC(N)=O)NC(=O)[C@@H](N)Cc1ccc(O)cc1)C(=O)N[C@@H](CCCNC(=N)N)C(=O)N[C@@H](Cc1ccccc1)C(N)=O [Metastin (45-54), reference compound] was run?
Its EC50 is 0.36 to 1.1 nM.

And the “% activity” value?
Its value is 100%.

What about the “Q (=EC50 (compound)/EC50 [metastin (45-54)])” value of the same molecule?
The value was 1.0.

Which “% activity” value does the source give for CC(C)C[C@H](NC(=O)CNC(=O)[C@H](Cc1ccccc1)NC(=O)c1ccc(CN(Cc2ccccn2)Cc2ccccn2)cc1)C(=O)N[C@@H](CCCNC(=N)N)C(=O)N[C@@H](Cc1c[nH]c2ccccc12)C(N)=O [Compound 1, reference compound] here?
Its value is 89%.

How did the “% activity” value turn out when CC(C)C[C@H](NC(=O)CNC(=O)[C@H](Cc1ccccc1)NC(=O)c1ccc(O)cc1)C(=O)N[C@@H](CCCNC(=N)N)C(=O)N[C@@H](Cc1c[nH]c2ccccc12)C(N)=O [Compound 30, 4-hydroxybenzoyl-Phe-Gly-Leu-Arg-Trp-NH2] was run?
The value was 95%.

CC(C)C[C@H](NC(=O)CNC(=O)[C@H](Cc1ccc2ccccc2c1)NC(=O)c1ccc(CN)cc1)C(=O)N[C@@H](CCCNC(=N)N)C(=O)N[C@@H](Cc1c[nH]c2ccccc12)C(N)=O [Compound 8, 4-(aminomethyl)benzoyl-Nal(2)-Gly-Leu-Arg-Trp-NH2] (H-[4Amb][2Nal]GLRW-NH2) was tested. Which “agonist activity, times stronger than compound 6” value (compared with compound 6) did it give?
The value was “about 4 times”.

What about the “% activity” value of the same molecule?
Its value is 89%.

How did the “% activity” value turn out when CC(C)C[C@H](NC(=O)CNC(=O)[C@H](Cc1ccccc1)NC(=O)c1ccc[nH]1)C(=O)N[C@@H](CCCNC(=N)N)C(=O)N[C@@H](Cc1c[nH]c2ccccc12)C(N)=O [Compound 27, 2-pyrrolylcarbonyl-Phe-Gly-Leu-Arg-Trp-NH2] was run?
The value was 96%.

CC(=O)NCc1ccc(C(=O)N[C@@H](Cc2ccccc2)C(=O)NCC(=O)N[C@@H](CC(C)C)C(=O)N[C@@H](CCCNC(=N)N)C(=O)N[C@@H](Cc2c[nH]c3ccccc23)C(N)=O)cc1 [Compound 28, N-acetyl-4-(aminomethyl)benzoyl-Phe-Gly-Leu-Arg-Trp-NH2] (Ac-[4Amb]FGLRW-NH2) was tested. Which “% activity” value did it give?
The value was 100%.

Which “% activity” value does the source give for CC(C)C[C@H](NC(=O)CNC(=O)[C@H](Cc1ccccc1)NC(=O)c1ccc(N)cc1)C(=O)N[C@@H](CCCNC(=N)N)C(=O)N[C@@H](Cc1c[nH]c2ccccc12)C(N)=O [Compound 20, 4-aminobenzoyl-Phe-Gly-Leu-Arg-Trp-NH2] (H-[4Abz]FGLRW-NH2) here?
Its value is 90%.

How did the “% activity” value turn out when CC(C)C[C@H](NC(=O)CNC(=O)[C@H](Cc1ccccc1)NC(=O)c1ccc([N+](=O)[O-])cc1)C(=O)N[C@@H](CCCNC(=N)N)C(=O)N[C@@H](Cc1c[nH]c2ccccc12)C(N)=O [Compound 37, 4-nitrobenzoyl-Phe-Gly-Leu-Arg-Trp-NH2] was run?
The value was 94%.

How did the “% activity” value turn out when CC(C)C[C@H](NC(=O)CNC(=O)[C@H](Cc1ccccc1)NC(=O)c1ccc(Cl)cc1)C(=O)N[C@@H](CCCNC(=N)N)C(=O)N[C@@H](Cc1c[nH]c2ccccc12)C(N)=O [Compound 38, 4-chlorobenzoyl-Phe-Gly-Leu-Arg-Trp-NH2] was run?
The value was 92%.

Which “% activity” value does the source give for CC(C)C[C@H](NC(=O)CNC(=O)[C@H](Cc1ccccc1)NC(=O)c1ccc(CNC(=N)N)cc1)C(=O)N[C@@H](CCCNC(=N)N)C(=O)N[C@@H](Cc1c[nH]c2ccccc12)C(N)=O [Compound 2, reference compound] here?
Its value is 94%.

CC(C)C[C@H](NC(=O)CNC(=O)[C@H](Cc1ccccc1)NC(=O)c1ccc(F)cc1)C(=O)N[C@@H](CCCNC(=N)N)C(=O)N[C@@H](Cc1c[nH]c2ccccc12)C(N)=O [Compound 39, 4-fluorobenzoyl-Phe-Gly-Leu-Arg-Trp-NH2] was tested. Which “% activity” value did it give?
Its value is 96%.
